Biological target: T1, full-length human PKCι (Homo sapiens, UniProt P41743)
T1 construct: Recombinant, full-length human PKCι expressed in Sf21 insect cells is also commercially available; purchased; host or cells: Sf21 insect cells
T1 sequence (P41743 1-596): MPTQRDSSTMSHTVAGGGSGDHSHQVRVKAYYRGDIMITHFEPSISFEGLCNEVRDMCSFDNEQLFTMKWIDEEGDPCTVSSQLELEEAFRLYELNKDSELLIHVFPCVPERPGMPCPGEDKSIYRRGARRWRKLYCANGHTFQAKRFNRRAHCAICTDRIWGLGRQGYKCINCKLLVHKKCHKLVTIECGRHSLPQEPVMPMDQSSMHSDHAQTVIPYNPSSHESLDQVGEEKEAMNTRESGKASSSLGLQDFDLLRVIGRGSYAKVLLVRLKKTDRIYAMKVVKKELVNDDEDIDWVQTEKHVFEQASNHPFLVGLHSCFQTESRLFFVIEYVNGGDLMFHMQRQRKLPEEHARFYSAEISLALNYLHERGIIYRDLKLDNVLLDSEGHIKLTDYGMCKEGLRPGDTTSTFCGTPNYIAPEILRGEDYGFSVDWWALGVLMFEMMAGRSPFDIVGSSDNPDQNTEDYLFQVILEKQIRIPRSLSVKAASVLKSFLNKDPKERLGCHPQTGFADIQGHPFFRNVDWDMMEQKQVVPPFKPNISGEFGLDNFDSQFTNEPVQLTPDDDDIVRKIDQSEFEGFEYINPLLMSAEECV
Test: PKCι IC50 IMAP assay, full-length PKCι at 150 μM ATP
Type: biochemical
Settings: read-out: IC50 in IMAP assay against full length PKCi at 150 μM ATP
Procedure, shortened: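 Full-length hPKCι (Sf21) ~15 pM; 5FAM-peptide 100 nM; ATP 150 μM (5× KM^APP); tris pH7.5/MgCl2/EGTA/DTT/Triton, 4% DMSO; 60 min RT; IMAP stop, 2 h; FP 485/530 nm; IC50 from % inhibition curves.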

Row | IC50 [nM] | Compound
1 | < 100 | {4-[5-Cyclopropyl- 4-((R)-3- fluoromethyl- piperazin-1- yl)-pyrido[3,4-d]- pyrimidin-2-yl]- pyridin-2-yl}-(6- fluoro-pyridin-2- yl)-amine [Example 512]
2 | 1000 to 10000 | CNc1nc(-c2ccnc(Nc3cccc(C4CCNCC4)c3)c2)nc2cncc(OC)c12 [Example 502, {5-Methoxy-2-[2-(3-piperidin-4-yl-phenylamino)-pyridin-4-yl]-pyrido[3,4-d]pyrimidin-4-yl}-methyl-amine]
3 | < 100 | Fc1ncc(C2CC2)c2c(N3CCNCC3)nc(-c3ccnc4[nH]c(C(F)(F)F)cc34)nc12 [Example 2102, 5-Cyclopropyl-8-fluoro-4-piperazin-1-yl-2-(2-trifluoromethyl-1H-pyrrolo[2,3-b]pyridin-4-yl)-pyrido[3,4-d]pyrimidine]
4 | < 100 | CC(C)c1ccc(F)c(Nc2cc(-c3nc(N4CCNCC4)c4c(C5CC5)cncc4n3)ccn2)c1 [Example 716, [4-(5-Cyclopropyl-4-piperazin-1-yl-pyrido[3,4-d]pyrimidin-2-yl)-pyridin-2-yl]-(2-fluoro-5-isopropyl-phenyl)-amine]
5 | 100 to 1000 | COc1cccc(-c2nccc3c(NC[C@@H](N)Cc4ccccc4)nc(-c4ccncc4)nc23)c1 [Example 94, N-[(2S)-2-amino-3-phenylpropyl]-8-(3-methoxy-phenyl)-2-(pyridin-4-yl)-pyrido[3,4-d]-pyrimidin-4-amine]
6 | < 100 | COc1cncc2nc(-c3ccnc(Nc4nc(C5CC5)cs4)c3)nc(N3CCNCC3)c12 [Example 204, (4-Cyclo-propyl-thiazol-2-yl)-[4-(5-methoxy-4-piperazin-1-yl-pyrido[3,4-d]pyrimidin-2-yl)-pyridin-2-yl]-amine]
7 | 1000 to 10000 | CS(=O)(=O)CCN1CCN(c2nc(-c3ccnc(Nc4ccc(F)cc4)c3)nc3cncc(C4CC4)c23)CC1 [Example 664, (4-{5-Cyclopropyl-4-[4-(2-methanesulfonyl-ethyl)-piperazin-1-yl]-pyrido[3,4-d]pyrimidin-2-yl}-pyridin-2-yl)-(4-fluoro-phenyl)-amine]
8 | < 100 | COc1cncc2nc(-c3ccnc(Nc4c(F)cc(F)cc4F)c3)nc(N3CCNCC3)c12 [Example 441, [4-(5-Methoxy-4-piperazin-1-yl-pyrido[3,4-d]pyrimidin-2-yl)-pyridin-2-yl]-(2,4,6-trifluoro-phenyl)-amine]
9 | 1000 to 10000 | Cc1ccccc1-c1nccc2c(NC[C@@H](N)Cc3ccccc3)nc(-c3ccncc3)nc12 [Example 118, N-[(2S)-2-amino-3-phenylpropyl]-8-(2-methyl-phenyl)-2-(pyridin-4-yl)-pyrido[3,4-d]-pyrimidin-4-amine]
10 | < 100 | C[C@@H]1CN(c2nc(-c3ccnc(Nc4nc(F)cc(F)c4F)c3)nc3cncc(C4CC4)c23)C[C@H](C)N1 [Example 2037, {4-[5-Cyclopropyl-4-((cis)-3,5-dimethyl-piperazin-1-yl)-pyrido[3,4-d]pyrimidin-2-yl]-pyridin-2-yl}-(3,4,6-trifluoro-pyridin-2-yl)-amine]
11 | < 100 | COc1cncc2nc(-c3ccnc(Nc4cccc(N5CCOCC5)c4)c3)nc(N[C@@H]3CCNC3)c12 [Example 227, {5-Methoxy-2-[2-(3-morpholin-4-yl-phenylamino)-pyridin-4-yl]-pyrido[3,4-d]pyrimidin-4-yl}-(R)-pyrrolidin-3-yl-amine]
12 | 1000 to 10000 | COc1cncc2nc(-c3ccncc3)nc(N3CCOCC3)c12 [Example 70, 4-[5-methoxy-2-(pyridin-4-yl)-pyrido[3,4-d]-pyrimidin-4-yl]-morpholine]
13 | 100 to 1000 | COc1cc(Nc2cc(-c3nc(N4CCNCC4)c4c(OC)cncc4n3)ccn2)cc(OC)c1OC [Example 390, [4-(5-Methoxy-4-piperazin-1-yl-pyrido[3,4-d]pyrimidin-2-yl)-pyridin-2-yl]-(3,4,5-trimethoxy-phenyl)-amine]
14 | < 100 | Fc1cccc2c1[nH]c1nccc(-c3nc(N4CCNCC4)c4c(C5CC5)cncc4n3)c12 [Example 2031, 4-(5-Cyclopropyl-4-piperazin-1-yl-pyrido[3,4-d]pyrimidin-2-yl)-8-fluoro-9H-pyrido[2,3-b]indole]
15 | 1000 to 10000 | COc1cncc2nc(-c3ccncc3)nc(N3CCOC(Cc4ccccc4)C3)c12 (stereo not drawn) [Example 72, 2-benzyl-4-[5-methoxy-2-(pyridin-4-yl)pyrido[3,4-d]-pyrimidin-4-yl]-morpholine]
16 | 100 to 1000 | COc1ccc(-c2nccc3c(NC[C@@H](N)Cc4ccccc4)nc(-c4ccncc4)nc23)cc1 [Example 95, N-[(2S)-2-amino-3-phenylpropyl]-8-(4-methoxy-phenyl)-2-(pyridin-4-yl)-pyrido[3,4-d]-pyrimidin-4-amine]
17 | < 100 | CC(C)c1cncc2nc(-c3ccnc4[nH]ccc34)nc(N3CCNCC3)c12 [Example 1211, 5-Isopropyl-4-piperazin-1-yl-2-(1H-pyrrolo[2,3-b]pyridin-4-yl)-pyrido[3,4-d]pyrimidine]
18 | < 100 | Fc1cnc(Nc2cc(-c3nc(N4CCNCC4)c4c(C(F)(F)F)cncc4n3)ccn2)c(F)c1 [Example 2194, (3,5-Difluoro-pyridin-2-yl)-[4-(4-piperazin-1-yl-5-trifluoromethyl-pyrido[3,4-d]pyrimidin-2-yl)-pyridin-2-yl]-amine]
19 | 100 to 1000 | COc1cncc2nc(-c3ccncc3)nc(N[C@@H]3CCNC3)c12 [Example 2, (5-Methoxy-2-pyridin-4-yl-pyrido[3,4-d]pyrimidin-4-yl)-(R)-pyrrolidin-3-yl-amine]
20 | < 100 | c1cc(-c2nc(N3CCNCC3)c3c(C4CC4)cncc3n2)ccn1 [Example 139, 1-[5-cyclopropyl-2-(pyridin-4-yl)pyrido[3,4-d]pyrimidin-4-yl]piperazine]
21 | < 100 | COc1cncc2nc(-c3ccnc(Nc4ccc(N5CCNCC5)nc4)c3)nc(N3CCNCC3)c12 [Example 412, [4-(5-Methoxy-4-piperazin-1-yl-pyrido[3,4-d]pyrimidin-2-yl)-pyridin-2-yl]-(6-piperazin-1-ylpyridin-3-yl)-amine]
22 | < 100 | FC(F)(F)[C@H]1CN(c2nc(-c3ccnc4[nH]ccc34)nc3cncc(C4CC4)c23)CCN1 [Example 1213, 5-Cyclopropyl-2-(1H-pyrrolo[2,3-b]pyridin-4-yl)-4-((R)-3-trifluoromethyl-piperazin-1-yl)-pyrido[3,4-d]pyrimidine]
23 | < 100 | CC1(C)CC(Nc2nc(-c3ccnc(Nc4c(F)cccc4F)c3)nc3cncc(C4CC4)c23)CCN1 (stereo not drawn) [Example 2038, {5-Cyclopropyl-2-[2-(2,6-difluoro-phenylamino)-pyridin-4-yl]-pyrido[3,4-d]pyrimidin-4-yl}-(2,2-dimethyl-piperidin-4-yl)-amine]
24 | 100 to 1000 | COc1ccccc1CC(=O)Nc1cc(-c2nc(N[C@@H]3CCNC3)c3ccncc3n2)ccn1 [Example 336, 2-(2-Methoxy-phenyl)-N-{4-[4-((R)-pyrrolidin-3-ylamino)-pyrido[3,4-d]pyrimidin-2-yl]-pyridin-2-yl}-acetamide]
25 | < 100 | COCC(C)(C)c1cc2c(-c3nc(N4CCNCC4)c4c(C5CCC5)cncc4n3)ccnc2[nH]1 [Example 2109, 5-Cyclobutyl-2-[2-(2-methoxy-1,1-dimethyl-ethyl)-1H-pyrrolo[2,3-b]pyridin-4-yl]-4-piperazin-1-yl-pyrido[3,4-d]pyrimidine]
26 | < 100 | C[C@@H](Nc1cc(-c2nc(N3CCNCC3)c3c(C4CC4)cncc3n2)ccn1)c1c(F)cccc1F [Example 653, [4-(5-Cyclopropyl-4-piperazin-1-yl-pyrido[3,4-d]pyrimidin-2-yl)-pyridin-2-yl]-[(R)-1-(2,6-difluoro-phenyl)-ethyl]-amine]
27 | < 100 | c1csc(-c2cc3c(-c4nc(N5CCNCC5)c5c(C6CC6)cncc5n4)ccnc3[nH]2)c1 [Example 1222, 5-Cyclopropyl-4-piperazin-1-yl-2-(2-thiophen-2-yl-1H-pyrrolo[2,3-b]pyridin-4-yl)-pyrido[3,4-d]pyrimidine]
28 | 100 to 1000 | COc1cncc2nc(-c3ccnc(Nc4cc(C#N)ccn4)c3)nc(N3CCN(C)CC3)c12 [Example 397, 2-{4-[5-Methoxy-4-(4-methyl-piperazin-1-yl)-pyrido[3,4-d]pyrimidin-2-yl]-pyridin-2-ylamino}-isonicotinonitrile]

Row | Compound | IC50 [nM]
29 | CN1CCC(N(C)c2nc(-c3ccnc(Nc4ncc(F)cc4F)c3)nc3cncc(C4CC4)c23)CC1 [Example 2129, {5-Cyclopropyl-2-[2-(3,5-difluoro-pyridin-2-ylamino)-pyridin-4-yl]-pyrido[3,4-d]pyrimidin-4-yl}-methyl-(1-methyl-piperidin-4-yl)-amine] | < 100
30 | CN(c1nc(-c2ccnc(Nc3nc(F)c(F)cc3F)c2)nc2cncc(C3CC3)c12)C1CCNCC1 [Example 2014, {5-Cyclopropyl-2-[2-(3,5,6-trifluoro-pyridin-2-ylamino)-pyridin-4-yl]-pyrido[3,4-d]pyrimidin-4-yl}-methyl-piperidin-4-yl-amine] | < 100

Reference: patent publication US9914730B2, “Azaquinazoline inhibitors of Atypical protein Kinase C” (Ignyta, Inc., priority 2012, dated 2018)
